Reference: patent US11149031B2, “Substituted N-(3-fluoropropyl)-pyrrolidine compounds, processes for their preparation and therapeutic uses thereof” (SANOFI, priority 2016, dated 2021)
Read-outs that look alike come from different tables or passages of the source.

How the values were obtained:
[1] = target: His6-ERα298-554 WT (ERα ligand-binding domain) (Homo sapiens (Human), UniProt P03372); assay: Test A: biochemical antagonist activity, LanthaScreen TR-FRET ERα coactivator assay, WT; conditions: read-out: Antagonism WT IC50
Method in brief: (§1)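 His6-ERα LBD (0.5 nM) with 0.5 nM Tb-anti-His6 antibody, 250 nM PGC1a peptide and 3 nM (or 10 nM) estradiol in 100 mM potassium phosphate pH 7.4 with 5 mM DTT, incubated overnight at room temperature with compound.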

[2] = target: His6-ERα298-554 D538G mutant (ERα ligand-binding domain) (Homo sapiens (Human), UniProt P03372, D538G); assay: Test A: biochemical antagonist activity, LanthaScreen TR-FRET ERα coactivator assay, D538G mutant; conditions: read-out: Antagonism D538G IC50
Method in brief: as §1

[3] = target: His6-ERα298-554 Y537S mutant (ERα ligand-binding domain) (Homo sapiens (Human), UniProt P03372, Y537S); assay: Test A: biochemical antagonist activity, LanthaScreen TR-FRET ERα coactivator assay, Y537S mutant; conditions: read-out: Antagonism Y537S IC50
Method in brief: as §1

[4] = test system: MCF7 cells (breast tumor cells) WT; assay: Test B: cell proliferation/viability assay (CellTiter-Glo) on MCF7 WT; type: cell-based; conditions: 7 days of compound exposure
Method in brief: (§2)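 Mutant lines are MCF7 transfected with ER mutants and selected for estradiol-independent growth. Cells in phenol red-free MEM with 5% charcoal-stripped FBS received 9-point 1:5 dilutions (3-0.000001 μM) for 7 days; CellTiter-Glo luminescence, % viability relative to untreated after background subtraction.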

[5] = test system: MCF7 cells expressing mutant estrogen receptor Tyr 537 Ser; assay: Test B: cell proliferation/viability assay (CellTiter-Glo) on MCF7 Tyr 537 Ser mutant; type: cell-based; conditions: MCF7 cells expressing ER Tyr 537 Ser mutant, 7 days of compound exposure, read-out: proliferation MCF7 Y537S IC50
Method in brief: as §2

[6] = test system: MCF7 cells expressing mutant estrogen receptor Asp 538 Gly; assay: Test B: cell proliferation/viability assay (CellTiter-Glo) on MCF7 Asp 538 Gly mutant; type: cell-based; conditions: MCF7 cells expressing ER Asp 538 Gly mutant, 7 days of compound exposure, read-out: proliferation MCF7 D538G IC50
Method in brief: as §2

[7] = target: ERα in MCF7 cells (Homo sapiens (Human), UniProt P03372); assay: Test C: estrogen receptor degradation activity, ERα in cell western assay in MCF7 cells; type: cell-based; conditions: for DC50: 4 hours post compound addition, ERα in cell western, read-out: Degradation IC50; for % Degradation at 3 μM: 4 hours, relative to fulvestrant
Method in brief: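 MCF7 cells in phenol-red-free medium with 5% charcoal-stripped FBS received compound (9-point 1:5, 3-0.000018 μM) for 4 h, then were fixed. ERα immunostained (Alexa 488) and normalised to DNA (Syto-64), read as integrated fluorescence on an Acumen scanner.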

[8] = asterisk (*): protocol using 10 nM estradiol

His6-ERα298-554 Y537S mutant (ERα ligand-binding domain), sequence (P03372 298-554 Y537S): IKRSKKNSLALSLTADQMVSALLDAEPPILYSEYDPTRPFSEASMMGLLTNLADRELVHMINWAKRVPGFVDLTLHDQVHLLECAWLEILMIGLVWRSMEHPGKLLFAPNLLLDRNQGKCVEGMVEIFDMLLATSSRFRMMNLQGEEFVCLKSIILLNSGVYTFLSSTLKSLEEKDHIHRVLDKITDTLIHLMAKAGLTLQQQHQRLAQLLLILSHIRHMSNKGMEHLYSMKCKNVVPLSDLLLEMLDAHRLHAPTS
His6-ERα298-554 D538G mutant (ERα ligand-binding domain), sequence (P03372 298-554 D538G): as the sequence (P03372 298-554 Y537S) above, with S240Y, D241G counted along it
His6-ERα298-554 WT (ERα ligand-binding domain), sequence (P03372 298-554): as the sequence (P03372 298-554 Y537S) above, with S240Y counted along it
ERα in MCF7 cells, sequence (P03372 whole entry): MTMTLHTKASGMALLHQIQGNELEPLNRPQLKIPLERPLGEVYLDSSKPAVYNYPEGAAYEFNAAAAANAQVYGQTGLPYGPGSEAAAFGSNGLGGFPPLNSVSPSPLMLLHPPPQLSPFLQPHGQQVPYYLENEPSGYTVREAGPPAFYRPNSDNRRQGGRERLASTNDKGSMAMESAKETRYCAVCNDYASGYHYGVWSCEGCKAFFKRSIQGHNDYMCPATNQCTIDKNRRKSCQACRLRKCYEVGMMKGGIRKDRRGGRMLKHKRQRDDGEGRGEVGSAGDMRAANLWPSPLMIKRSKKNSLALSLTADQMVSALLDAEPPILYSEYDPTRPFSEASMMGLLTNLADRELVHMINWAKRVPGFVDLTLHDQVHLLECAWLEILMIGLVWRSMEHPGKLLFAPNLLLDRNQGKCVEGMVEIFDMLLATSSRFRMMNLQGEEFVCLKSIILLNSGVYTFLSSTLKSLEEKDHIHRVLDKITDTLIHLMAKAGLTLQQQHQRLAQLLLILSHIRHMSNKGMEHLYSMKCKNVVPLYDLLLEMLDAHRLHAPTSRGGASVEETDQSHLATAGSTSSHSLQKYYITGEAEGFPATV

COc1ccc(C2=C(c3ccc(O[C@H]4CCN(CCCF)C4)cc3)c3ccc(O)cc3OCC2)c(F)c1 [Example 121, 4-(2-fluoro-4-methoxy-phenyl)-5-[4-[(3S)-1-(3-fluoropropyl)pyrrolidin-3-yl]oxyphenyl]-2,3-dihydro-1-benzoxepin-8-ol]
IC50 ([1]; protocol with 3 nM estradiol): 2 nM
IC50 ([2]; protocol with 3 nM estradiol): 27 nM
IC50 ([3]; protocol with 3 nM estradiol): 13 nM
IC50 ([4]; Homo sapiens, MCF7, 168 h): 0.3 nM
IC50 ([5]; Homo sapiens, MCF7, 168 h): 3 nM
IC50 ([6]; Homo sapiens, MCF7, 168 h): 1 nM
DC50 [7]: 0.2 nM
% Degradation at 3 μM [7]: 90%

CCOc1ccc(C2=C(c3ccc(O[C@H]4CCN(CCCF)C4)cc3)c3ccc(O)cc3SCC2)c(F)c1F [Example 217, 4-(4-ethoxy-2,3-difluoro-phenyl)-5-[4-[(3S)-1-(3-fluoropropyl)pyrrolidin-3-yl]oxyphenyl]-2,3-dihydro-1-benzothiepin-8-ol]
IC50 [1, 8]: 4 nM
IC50 [2, 8]: 61 nM
IC50 [3, 8]: 39 nM
IC50 ([4]; Homo sapiens, MCF7, 168 h): 0.1 nM
IC50 ([5]; Homo sapiens, MCF7, 168 h): 5 nM
IC50 ([6]; Homo sapiens, MCF7, 168 h): 0.6 nM
DC50 [7]: 0.2 nM
% Degradation at 3 μM [7]: 87%

CCOc1ccc(C2=C(c3ccc(N[C@H]4CCN(CCCF)C4)cc3)c3ccc(O)cc3CCC2)c(F)n1 [Example 86, 6-(6-ethoxy-2-fluoro-3-pyridyl)-5-[4-[[(3S)-1-(3-fluoropropyl)pyrrolidin-3-yl]amino]phenyl]-8,9-dihydro-7H-benzo[7]annulen-2-ol]
IC50 [1, 8]: 0.5 nM
IC50 [2, 8]: 7 nM
IC50 [3, 8]: 5 nM
IC50 ([4]; Homo sapiens, MCF7, 168 h): 0.2 nM
IC50 ([5]; Homo sapiens, MCF7, 168 h): 1 nM
IC50 ([6]; Homo sapiens, MCF7, 168 h): 0.2 nM
DC50 [7]: 0.5 nM
% Degradation at 3 μM [7]: 95%

CCOc1ccc(C2=C(c3ccc(O[C@H]4CCN(CCCF)C4)cc3)c3ccc(O)cc3SCC2)c(F)n1 [Example 187, 4-(6-ethoxy-2-fluoro-3-pyridyl)-5-[4-[(3S)-1-(3-fluoropropyl)pyrrolidin-3-yl]oxyphenyl]-2,3-dihydro-1-benzothiepin-8-ol]
IC50 ([1]; protocol with 3 nM estradiol): 1.5 nM
IC50 ([2]; protocol with 3 nM estradiol): 43 nM
IC50 ([3]; protocol with 3 nM estradiol): 22 nM
IC50 ([4]; Homo sapiens, MCF7, 168 h): 0.2 nM
IC50 ([5]; Homo sapiens, MCF7, 168 h): 4 nM
IC50 ([6]; Homo sapiens, MCF7, 168 h): 0.7 nM
DC50 [7]: 0.5 nM
% Degradation at 3 μM [7]: 92%

Oc1ccc2c(c1)SCC(c1ccc3ncccc3c1)=C2c1ccc(O[C@H]2CCN(CCCF)C2)cc1 [Example 67, 4-[4-[(3S)-1-(3-fluoropropyl)pyrrolidin-3-yl]oxyphenyl]-3-(6-quinolyl)-2H-thiochromen-7-ol]
IC50 [1, 8]: 120 nM
IC50 [2, 8]: 1810 nM
IC50 [3, 8]: 1280 nM
IC50 ([4]; Homo sapiens, MCF7, 168 h): 12 nM
IC50 ([5]; Homo sapiens, MCF7, 168 h): 86 nM
IC50 ([6]; Homo sapiens, MCF7, 168 h): 16 nM
DC50 [7]: 1 nM
% Degradation at 3 μM [7]: 90%

Oc1cc2c(cc1Cl)C(c1ccc(O[C@H]3CCN(CCCF)C3)cc1)=C(c1ccc3c(c1)CCN3)CCO2 [Example 143, 7-chloro-5-[4-[(3S)-1-(3-fluoropropyl)pyrrolidin-3-yl]oxyphenyl]-4-indolin-5-yl-2,3-dihydro-1-benzoxepin-8-ol]
IC50 ([1]; protocol with 3 nM estradiol): 464 nM
IC50 ([2]; protocol with 3 nM estradiol): 4000 nM
IC50 ([3]; protocol with 3 nM estradiol): 4000 nM
IC50 ([4]; Homo sapiens, MCF7, 168 h): 24 nM
IC50 ([5]; Homo sapiens, MCF7, 168 h): 357 nM
IC50 ([6]; Homo sapiens, MCF7, 168 h): 63 nM
DC50 [7]: 14 nM
% Degradation at 3 μM [7]: 74%

Oc1ccc2c(c1)SCCC(c1ccc3occc3c1)=C2c1ccc(O[C@H]2CCN(CCCF)C2)cc1 [Example 184, 4-(benzofuran-5-yl)-5-[4-[(3S)-1-(3-fluoropropyl)pyrrolidin-3-yl]oxyphenyl]-2,3-dihydro-1-benzothiepin-8-ol]
IC50 ([1]; protocol with 3 nM estradiol): 1 nM
IC50 ([2]; protocol with 3 nM estradiol): 6 nM
IC50 ([3]; protocol with 3 nM estradiol): 4 nM
IC50 ([4]; Homo sapiens, MCF7, 168 h): 0.3 nM
IC50 ([5]; Homo sapiens, MCF7, 168 h): 4 nM
IC50 ([6]; Homo sapiens, MCF7, 168 h): 0.7 nM
DC50 [7]: 0.7 nM
% Degradation at 3 μM [7]: 87%

C[C@H]1Cc2cc(C3=C(c4ccc(O[C@H]5CCN(CCCF)C5)cc4)c4ccc(O)cc4SCC3)ccc2O1 [Example 204, 5-[4-[(3S)-1-(3-fluoropropyl)pyrrolidin-3-yl]oxyphenyl]-4-[(2S)-2-methyl-2,3-dihydrobenzofuran-5-yl]-2,3-dihydro-1-benzothiepin-8-ol]
IC50 [1, 8]: 24 nM
IC50 [2, 8]: 24 nM
IC50 [3, 8]: 15 nM
IC50 ([4]; Homo sapiens, MCF7, 168 h): 0.4 nM
IC50 ([5]; Homo sapiens, MCF7, 168 h): 5 nM
IC50 ([6]; Homo sapiens, MCF7, 168 h): 0.8 nM
DC50 [7]: 0.6 nM
% Degradation at 3 μM [7]: 88%

Oc1ccc2c(c1)C(c1ccc(O[C@H]3CCN(CCCF)C3)cc1)=C(c1ccc(OC(F)(F)F)cc1Cl)CC2 [Example 7, 7-[2-chloro-4-(trifluoromethoxy)phenyl]-8-[4-[(3S)-1-(3-fluoropropyl)pyrrolidin-3-yl]oxyphenyl]-5,6-dihydronaphthalen-2-ol]
IC50 [1, 8]: 1470 nM
IC50 [2, 8]: > 4000 nM
IC50 [3, 8]: > 4000 nM
IC50 ([4]; Homo sapiens, MCF7, 168 h): 13 nM
IC50 ([5]; Homo sapiens, MCF7, 168 h): > 999 nM
IC50 ([6]; Homo sapiens, MCF7, 168 h): 18 nM
DC50 [7]: 22 nM
% Degradation at 3 μM [7]: 82%

CCOc1ccc(C2=C(c3ccc(O[C@H]4CCN(CCCF)C4)cc3)c3ccc(O)cc3OCC2)c(F)c1 [Example 152, 4-(4-ethoxy-2-fluoro-phenyl)-5-[4-[(3S)-1-(3-fluoropropyl)pyrrolidin-3-yl]oxyphenyl]-2,3-dihydro-1-benzoxepin-8-ol]
IC50 [1, 8]: 9 nM
IC50 [2, 8]: 154 nM
IC50 [3, 8]: 107 nM
IC50 ([4]; Homo sapiens, MCF7, 168 h): 0.5 nM
IC50 ([5]; Homo sapiens, MCF7, 168 h): 4 nM
IC50 ([6]; Homo sapiens, MCF7, 168 h): 3 nM
DC50 [7]: 0.2 nM
% Degradation at 3 μM [7]: 92%

[O-][S+]1CCC(c2ccc(OC(F)(F)F)cc2)=C(c2ccc(O[C@H]3CCN(CCCF)C3)cc2)c2ccc(O)cc21 (single isomer, unassigned) [Example 226]
IC50 [1, 8]: > 4000 nM
IC50 [2, 8]: > 4000 nM
IC50 [3, 8]: > 4000 nM
IC50 [4]: 87 nM
IC50 [5]: > 999 nM
IC50 [6]: 288 nM
DC50 [7]: 103 nM
% Degradation at 3 μM [7]: 93%

Oc1ccc2c(c1)SCCC(c1ccc(F)nc1F)=C2c1ccc(O[C@H]2CCN(CCCF)C2)cc1 [Example 215, 4-(2,6-difluoro-3-pyridyl)-5-[4-[(3S)-1-(3-fluoropropyl)pyrrolidin-3-yl]oxyphenyl]-2,3-dihydro-1-benzothiepin-8-ol]
IC50 [1, 8]: 8 nM
IC50 [2, 8]: 190 nM
IC50 [3, 8]: 86 nM
IC50 ([4]; Homo sapiens, MCF7, 168 h): 0.1 nM
IC50 ([5]; Homo sapiens, MCF7, 168 h): 3 nM
IC50 ([6]; Homo sapiens, MCF7, 168 h): 0.2 nM
DC50 [7]: 0.2 nM
% Degradation at 3 μM [7]: 93%

CC(C)(C)OC(=O)Nc1ccc(C2=C(c3ccc(O[C@H]4CCN(CCCF)C4)cc3)c3ccc(O)cc3SC2)c(F)n1 [Example 65, tert-butyl N-[6-fluoro-5-[4-[4-[(3S)-1-(3-fluoropropyl)pyrrolidin-3-yl]oxyphenyl]-7-hydroxy-2H-thiochromen-3-yl]-2-pyridyl]carbamate]
IC50 [1, 8]: 1220 nM
IC50 [2, 8]: > 4000 nM
IC50 [3, 8]: > 4000 nM
IC50 ([4]; Homo sapiens, MCF7, 168 h): 21 nM
IC50 ([5]; Homo sapiens, MCF7, 168 h): 572 nM
IC50 ([6]; Homo sapiens, MCF7, 168 h): 21 nM
DC50 [7]: 38 nM
% Degradation at 3 μM [7]: 71%

Oc1ccc2c(c1)SCCC(c1ccc3cc[nH]c3c1)=C2c1ccc(O[C@H]2CCN(CCCF)C2)cc1 [Example 172, 5-[4-[(3S)-1-(3-fluoropropyl)pyrrolidin-3-yl]oxyphenyl]-4-(1H-indol-6-yl)-2,3-dihydro-1-benzothiepin-8-ol]
IC50 ([1]; protocol with 3 nM estradiol): 6 nM
IC50 ([2]; protocol with 3 nM estradiol): 24 nM
IC50 ([3]; protocol with 3 nM estradiol): 18 nM
IC50 ([4]; Homo sapiens, MCF7, 168 h): 0.2 nM
IC50 ([5]; Homo sapiens, MCF7, 168 h): 12 nM
IC50 ([6]; Homo sapiens, MCF7, 168 h): 2 nM
DC50 [7]: 0.4 nM
% Degradation at 3 μM [7]: 87%

CCOc1cc(Cl)ccc1C1=C(c2ccc(O[C@H]3CCN(CCCF)C3)cc2)c2ccc(O)cc2SC1 [Example 43, 3-(4-chloro-2-ethoxy-phenyl)-4-[4-[(3S)-1-(3-fluoropropyl)pyrrolidin-3-yl]oxyphenyl]-2H-thiochromen-7-ol]
IC50 [1, 8]: 96 nM
IC50 [2, 8]: 1140 nM
IC50 [3, 8]: 673 nM
IC50 ([4]; Homo sapiens, MCF7, 168 h): 0.4 nM
IC50 ([5]; Homo sapiens, MCF7, 168 h): 11 nM
IC50 ([6]; Homo sapiens, MCF7, 168 h): 1 nM
DC50 [7]: 0.8 nM
% Degradation at 3 μM [7]: 97%

Oc1ccc2c(c1)CCCC(c1ccc(Cl)cc1Cl)=C2c1ccc(O[C@H]2CCN(CCCF)C2)nc1 [Example 239, 6-(2,4-dichlorophenyl)-5-[6-[(3S)-1-(3-fluoropropyl)pyrrolidin-3-yl]oxy-3-pyridyl]-8,9-dihydro-7H-benzo[7]annulen-2-ol]
IC50 [1, 8]: 13 nM
IC50 [2, 8]: 13 nM
IC50 [3, 8]: 9 nM
IC50 ([4]; Homo sapiens, MCF7, 168 h): 0.3 nM
IC50 ([5]; Homo sapiens, MCF7, 168 h): 3 nM
IC50 ([6]; Homo sapiens, MCF7, 168 h): 1 nM
DC50 [7]: 0.6 nM
% Degradation at 3 μM [7]: 87%
